The target of this assay is T1, recombinant autotaxin (Homo sapiens, UniProt Q13822).
T1 construct: made in house; host or cells: Hi5 insect cells (baculovirus)
In words: Autotaxin test (enzyme test), Amplex Red fluorescence with LPC substrate. The class given is biochemical. As to conditions: autotaxin inhibition (enzyme test); for remaining activity at 10 µM: 10 μM compound, read-out: % Control at 10 μM. Here is the method:
Autotaxin Inhibition (Enzyme Test)
Autotaxin Test (Enzyme Test)
The autotaxin activity is measured indirectly using Amplex Red reagent. Amplex Red is measured here as fluorogenic indicator for the H2O2 formed. In detail, autotaxin converts the substrate lysophosphatidylcholine (LPC) into phosphocholine and lysophosphatidylic acid (LPA). After this reaction, the phosphocholine is reacted with alkaline phosphatase to give inorganic phosphate and choline. In the next step, choline is oxidised by choline oxidase to give betaine, with formation of H2O2. H2O2 reacts with Amplex Red reagent in the presence of peroxidase (horseradish peroxidase) in a 1:1 stoichiometry and forms the highly fluorescent resorufin. The fluorescence is measured in a reaction-dependent kinetic mode in order that fluorescent signals from possible other fluorescent substances which are not involved in the reaction can be corrected out.
3 μl of a standard solution or of the test substances (substances with the name A(n)) in individual concentrations dissolved in 20 mM Hepes pH 7.2 with a maximum of 11% of DMSO are pre-incubated together with 20 μl (19 ng) of highly purified recombinant autotaxin in test buffer in a black microtitre plate provided with 384 wells at 22° C. for 30 min. The reaction is then initiated by addition of 10 μl of L-α-lysophosphatidylcholine (LPC), where the final concentration of LPC is 75 μM. The mixture is incubated at 37° C. for 90 min. After the incubation, Amplex Red reagent, peroxidase (horseradish peroxidase) and choline oxidase is added, and the fluorescence is immediately measured at 612 nm with excitation of 485 nm in a “Tecan Ultra multimode” reader. The activity of autotaxin is calculated indirectly via detection of the H2O2 formed.
• Microtitre plate: PS microplate, 384 wells, small volume, black Corning, Cat#3677 • Protein: recombinant autotaxin (Baculovirale Hi5 Expression) • Substrate: L-α-lysophosphatidylcholine (chicken egg)); Avanti Polar Lipids #830071 P • Standard: C14 LPA, Avanti Polar Lipids, Cat#857120P • Detection reagent: Amplex Red reagent; Invitrogen #A12222; 5 mg dissolved in 1.923 ml of DMSO peroxidase type VI-A (horseradish) from Sigma #P6782; 5 mg dissolved in 7.45 ml of test buffer, choline oxidase; Sigma # C5896; 50 U dissolved in 2.47 ml of test buffer • Detection reagent mix: 1:50 dilution of detection reagent in test buffer • Test buffer: 10 mM Tris HCl, Merck, Cat #1.08219, pH 8, 1 mM; CaCl2×2 H2O, Merck #1.02382

SMILES strings stand for the structures. Where only a bound is given, the exact number is not on record here.

This passage reports remaining activity and IC50 results from patent US20120115852A1, “HETEROCYCLIC COMPOUNDS AS AUTOTAXIN INHIBITORS” (Merck Patent Gesellschaft Mit Beschrankter Haftung, priority 2009, published 2012).

As for `O=C1Nc2ccc(-c3ccc(Cl)cc3F)cc2C(=O)N2CCN(C(=O)[C@@H]3CCCN3C3CCNCC3)C[C@H]12` [Compound A117, (R)-7-(4-Chloro-2-fluorophenyl)-2-((S)-1-piperidin-4-ylpyrrolidine-2-carbonyl)-1,3,4,11a-tetrahydro-2H,10H-2,4a,10-triazadibenzo[a,d]cycloheptene-5,11-dione], the remaining activity at 10 µM was 16% and the concentration for half-maximal inhibition (IC50) (commonly the concentration that gives 50% inhibition) was above 1 µM.

In the case of `Cn1cc(CCC(=O)N2CCN3C(=O)c4cc(-c5ccc(Cl)cc5F)ccc4NC(=O)[C@H]3C2)cn1` [Compound A97, (R)-7-(4-Chloro-2-fluorophenyl)-2-[3-(1-methyl-1H-pyrazol-4-yl)propionyl]-1,3,4,11a-tetrahydro-2H,10H-2,4a,10-triazadibenzo[a,d]cycloheptene-5,11-dione], the remaining activity at 10 µM stood at 19% and the IC50 fell in the range of 0.1 to 1 µM.

For the compound `CC(C)(C)CC(=O)N1CCN2C(=O)c3cc(-c4ccc(Cl)cc4Cl)ccc3NC(=O)C2C1` (stereo not drawn) [Compound A78, 7-(2,4-Dichlorophenyl)-2-(3,3-dimethylbutyryl)-1,3,4,11a-tetrahydro-2H,10H-2,4a,10-triaza-dibenzo[a,d]cycloheptene-5,11-dione], the remaining activity at 10 µM amounted to 16% and the IC50 is above 1 µM.

Turning to `CC(=O)N1CCN2C(=O)c3cc(-c4ccc(Cl)cc4F)ccc3NC(=O)[C@H]2C1` [Compound A116, (R)-2-Acetyl-7-(4-chloro-2-fluorophenyl)-1,3,4,11a-tetrahydro-2H,10H-2,4a,10-triaza-dibenzo[a,d]cycloheptene-5,11-dione], the remaining activity at 10 µM amounted to 71% and the IC50 is above 1 µM.

For the compound `NCCN1CCC[C@H]1C(=O)N1CCN2C(=O)c3cc(-c4ccc(Cl)cc4F)ccc3NC(=O)[C@H]2C1` [Compound A119, (R)-2-[(S)-1-(2-Aminoethyl)pyrrolidine-2-carbonyl]-7-(4-chloro-2-fluorophenyl)-1,3,4,11a-tetrahydro-2H,10H-2,4a,10-triazadibenzo[a,d]cycloheptene-5,11-dione], the remaining activity at 10 µM was 45% and the IC50 was above 1 µM.

Regarding `O=C1Nc2ccc(-c3ccc(Cl)cc3)cc2C(=O)N2CCN(C(=O)C3(c4ccccc4)CC3)CC12` (stereo not drawn) [Compound A49, 7-(4-Chlorophenyl)-2-(1-phenylcyclopropane-carbonyl)-1,3,4,11a-tetrahydro-2H,10H-2,4a,10-triazadibenzo[a,d]cycloheptene-5,11-dione], the IC50 is above 1 µM.

For the compound `CN1CCN(C(=O)CN2C(=O)[C@@H]3CN(C(=O)CC(C)(C)C)CCN3C(=O)c3cc(-c4ccc(Cl)cc4F)ccc32)CC1` [Compound A162], the remaining activity at 10 µM turned out to be 30% and the IC50 is above 1 µM.

Take `CC(C)(C)CC(=O)N1CCN2C(=O)c3cc(-c4ccc(Cl)cc4)ccc3N(CCO)C(=O)C2C1` (stereo not drawn) [Compound A165]: the remaining activity at 10 µM is -20% and the IC50 was 0.1 to 1 µM.

For `O=C1Nc2ccc(-c3ccc(Cl)cc3F)cc2C(=O)N2CCN(C(=O)Cc3ccccn3)CC12` (stereo not drawn) [Compound A30, 7-(4-Chloro-2-fluorophenyl)-2-(2-pyridin-2-ylacetyl)-1,3,4,11a-tetrahydro-2H,10H-2,4a,10-triaza-dibenzo[a,d]cycloheptene-5,11-dione], the remaining activity at 10 µM was 23% and the IC50 is above 1 µM.

For the compound `CC(C)(C)CC(=O)N1CCN2C(=O)c3cc(-c4ccc(Cl)cc4F)ccc3NC(=O)[C@@H]2C1` [Compound A125, (S)-7-(4-Chloro-2-fluorophenyl)-2-(3,3-dimethyl-butyryl)-1,3,4,11a-tetrahydro-2H,10H-2,4a,10-triazadibenzo[a,d]cycloheptene-5,11-dione], the remaining activity at 10 µM was 25% and the IC50 is above 1 µM.

`O=C1Nc2ccc(-c3ccc(Cl)cc3F)cc2C(=O)N2CCN(C(=O)Cc3ccccc3)CC12` (stereo not drawn) [Compound A31, 7-(4-Chloro-2-fluorophenyl)-2-phenylacetyl-1,3,4,11a-tetrahydro-2H,10H-2,4a,10-triaza-dibenzo[a,d]cycloheptene-5,11-dione]: the remaining activity at 10 µM came to 17% and the half-inhibitory concentration (IC50) is above 1 µM.

With `CC(C)(C)[C@H](O)C(=O)N1CCN2C(=O)c3cc(-c4ccc(Cl)cc4F)ccc3NC(=O)[C@H]2C1` [Compound A96, (R)-7-(4-Chloro-2-fluorophenyl)-2-((S)-2-hydroxy-3,3-dimethylbutyryl)-1,3,4,11a-tetrahydro-2H,10H-2,4a,10-triazadibenzo[a,d]cycloheptene-5,11-dione], the remaining activity at 10 µM is 1% and the IC50 was in the range of 0.1 to 1 µM.

For the compound `CN1CCN(C(=O)CN2C(=O)[C@H]3CN(C(=O)CC(C)(C)C)CCN3C(=O)c3cc(-c4ccc(Cl)cc4F)ccc32)CC1` [Compound A149], the remaining activity at 10 µM was determined as 15% and the IC50 is above 1 µM.

In the case of `CC(C)(C)CC(=O)N1CCN2C(=O)c3cc(-c4cc(Cl)cc(Cl)c4)ccc3NC(=O)C2C1` (stereo not drawn) [Compound A19, 7-(3,5-Dichlorophenyl)-2-(3,3-dimethylbutyryl)-1,3,4,11a-tetrahydro-2H,10H-2,4a,10-triaza-dibenzo[a,d]cycloheptene-5,11-dione], the remaining activity at 10 µM came out at 65% and the IC50 was above 1 µM.

With `NC(=O)CN1C(=O)[C@H]2CN(C(=O)[C@@H]3CCCN3C3CCNCC3)CCN2C(=O)c2cc(-c3ccc(Cl)cc3F)ccc21` [Compound A155], the remaining activity at 10 µM was determined as 10% and the half-inhibitory concentration (IC50) was in the range of 0.1 to 1 µM.

Regarding `O=C1Nc2ccc(-c3ccco3)cc2C(=O)N2CCN(C(=O)C3CC3)C[C@H]12` [Compound B16], the remaining activity at 10 µM was found to be 82%.

Regarding `COC[C@H](N)C(=O)N1CCN2C(=O)c3cc(-c4ccc(Cl)cc4F)ccc3NC(=O)[C@H]2C1` [Compound A124, (R)-2-((S)-2-Amino-3-methoxypropionyl)-7-(4-chloro-2-fluorophenyl)-1,3,4,11a-tetrahydro-2H,10H-2,4a,10-triazadibenzo[a,d]cycloheptene-5,11-dione], the remaining activity at 10 µM was found to be 39% and the IC50 was above 1 µM.

Take `CC(C)(C)CC(=O)N1CCN2C(=O)c3cc(-c4ccc(Cl)cc4)cnc3NC(=O)C2C1` (stereo not drawn) [Compound A139, 3-(4-Chlorophenyl)-8-(3,3-dimethylbutyryl)-7,8,9,9a-tetrahydro-6H,11H-1,5a,8,11-tetraazadibenzo-[a,d]cycloheptene-5,10-dione]: the remaining activity at 10 µM turned out to be 45% and the IC50 was above 1 µM.

With `Cn1cc(CCC(=O)N2CCN3C(=O)c4cc(-c5ccc(Cl)cc5F)ccc4NC(=O)[C@@H]3C2)cn1` [Compound A98, (S)-7-(4-Chloro-2-fIuorophenyl)-2-[3-(1-methyl-1H-pyrazol-4-yl)propionyl]-1,3,4,11a-tetrahydro-2H,10H-2,4a,10-triazadibenzo[a,d]cycloheptene-5,11-dione], the remaining activity at 10 µM is 90% and the IC50 was above 1 µM.

Consider `Cn1cc(CCC(=O)N2CCN3C(=O)c4cc(-c5ccc(Cl)cc5)ccc4NC(=O)C3C2)cn1` (stereo not drawn) [Compound A26, 7-(4-Chlorophenyl)-2-[3-(1-methyl-1H-pyrazol-4-yl)-propionyl]-1,3,4,11a-tetrahydro-2H,10H-2,4a,10-triazadibenzo[a,d]cycloheptene-5,11-dione], for which the remaining activity at 10 µM amounted to 12% and the IC50 was above 1 µM.

Regarding `O=C([C@@H]1CCCN1C1CCNCC1)N1CCN2C(=O)c3cc(-c4ccc(Cl)cc4F)ccc3N(CCC3CCNCC3)C(=O)[C@@H]2C1` [Compound A164], the remaining activity at 10 µM turned out to be 12% and the IC50 was above 1 µM.

`O=C1Nc2ccc(-c3ccccc3F)cc2C(=O)N2CCN(C(=O)[C@@H]3CSCN3)C[C@H]12` [Compound A10, (R)-7-(2-Fluorophenyl)-2-((R)-thiazolidine-4-carbonyl)-1,3,4,11a-tetrahydro-2H,10H-2,4a,10-triazadibenzo[a,d]cycloheptene-5,11-dione]: the remaining activity at 10 µM was determined as 34% and the IC50 is above 1 µM.

Regarding `O=C1Nc2ccc(-c3ccccc3)cc2C(=O)N2CCN(C(=O)C3CCCCC3)C[C@H]12` [Compound B13], the remaining activity at 10 µM came to 53%.

Regarding `O=C1Nc2ccc(-c3ccc(Cl)cc3)cc2C(=O)N2CCN(C(=O)C(O)c3ccccc3Cl)CC12` (stereo not drawn) [Compound A40, 7-(4-Chlorophenyl)-2-[2-(2-chlorophenyl)-2-hydroxyacetyl]-1,3,4,11a-tetrahydro-2H,10H-2,4a,10-triazadibenzo[a,d]cycloheptene-5,11-dione], the remaining activity at 10 µM is 48% and the IC50 was above 1 µM.
